Results: patent US8618104B2, “Salts of methyl (R)-7-[3-amino-4-(2,4,5-trifluoro-phenyl)-butyryl]-3-trifluoromethyl-5,6,7,8-tetrahydro-imidazo[1,5-A]pyrazine-1-carboxylate” (Jiangsu Hengrui Medicine Co., Ltd., priority 2009, dated 2013)

Legend:
[1] = Absorption tests in rats of different salts (pharmacokinetics); conditions: rat, 6.0 mg/kg (by base) by gavage; for t1/2: 0.5% CMC-Na suspension
Procedure: (§1) 16 healthy male rats weighing 200˜220 g were randomly divided into four groups. […] The plasma was separated, preserved for test under −20° C. The blood concentration was tested by HPLC-Tandem Mass Spectrum.

[2] = Stability of compound A and its salts, content by HPLC; assay type: physicochemical; conditions: for Content by HPLC after storage: raw material purity 98.6%
Procedure: (1) Content Determination Method
With a Octadecyl silane chemically bonded silica as bulking agent and 0.1% aqueous solution of ammonia-acetonitrile (65:35) as mobile phase, eluted in gradient mode at detection wavelength of 230 nm. Appropriate amount of test sample and reference solution was taken, then water was added to dissolve which to form solutions every 1 ml containing 0.2 mg of them respectively. The test sample solution and reference solution 10 μl was respectively taken and injected into the liquid chromatograph. chromatograph chart was recorded, and calculated by peak area according to the external standard method.
The stability of different types of the pharmaceutically acceptable salts of compound A under different conditions

[3] = tested on: genetic obese Wistar rats with diabetes; assay: Oral glucose tolerance test in genetic obese Wistar rats with diabetes; assay type: in vivo, rat; conditions: for Plasma glucose: 30 mg/kg/day p.o. for 7 days, mean ± SD
Procedure: 13˜14 week-old male fat rats were divided into five groups, each group five. They were respectively administered the 6 salts of compound A (each 30 mg/kg/day, p.o.) for 7 days. After overnight fasting, oral glucose tolerance tests were conducted immidiately (2 g glucose/kg/5 ml, p.o.). Before and 120 and 240 mins after the glucose tolerance test, blood was collected from the tail vein, and plasma glucose was analyzed by enzymatic method (Encore Chemical System; Baker). Results were expressed as mean value of each group (n=5-6)±standard deviation analyzed by Dunnett's test which were shown in table 3.

[4] = tested on: genetic obese Wistar rats with diabetes; assay: Effects of the 6 salts in genetic obese Wistar rats with diabetes (14 days); assay type: in vivo, rat; conditions: for Hemoglobin (hemoglobin A1) / Plasma glucose: male Wistar fat rats, 10 mg/kg/day p.o. in feed, mean ± SD, n=5-6
Procedure: 14 to 19 week-old male Wistar fat rats were divided into five groups, each to group 5 to 6, and they were respectively administered the 6 salts of compound A (each 10 mg/kg weight/day, p.o.) which were mixed in commercial feed at a ratio of […] for 14 days. The blood was taken from tail vein, a commercial kits (NC-ROPET, Nippon Chemiphar CO.) was used to measure plasma glucose and hemoglobin A1 by enzymatic is method. The results were expressed as mean value of each group (n=5-6)±standard deviation and analyzed by Dunnett's test which were shown in table 2. A significance level of 1% was used.

[5] = in vivo; conditions: male, rat, po, 6 mg/kg
Procedure: as §1

[6] = 0 min (before glucose load 2 g/kg p.o.)
[7] = 120 min after glucose load 2 g/kg p.o.
[8] = 240 min after glucose load 2 g/kg p.o.

AUC0-t [1] [ng·h/mL]	AUC0-∞ [1] [ng·h/mL]	CL/F [1] [mL/min/kg]	Cmax [1] [ng/mL]	MRT [1] [h]	Tmax [1] [h]	t1/2 [1] [h]	Content by HPLC after storage ([2]; 40° C., 10 days) [%]	Content by HPLC after storage ([2]; 60° C., 10 days) [%]	Content by HPLC after storage ([2]; Light, 10 days) [%]	Content by HPLC after storage ([2]; RH60%, 25° C., nine months) [%]	Content by HPLC after storage ([2]; RH75%, 40° C., six months) [%]	SMILES	Plasma glucose [3, 6] [mg/dL]	Plasma glucose [3, 7] [mg/dL]	Plasma glucose [3, 8] [mg/dL]	Hemoglobin (hemoglobin A1) [4]	Plasma glucose [4]	further results
317	319	348	148	1.86	0.63	1.07	98.7	98.2	98.1	97.5	97.7	COC(=O)c1nc(C(F)(F)F)n2c1CN(C(=O)C[C@H](N)Cc1cc(F)c(F)cc1F)CC2.Cl [Hydrochloride of compound A, hydrochloride of (R)-7-[3-amino-4-(2,4,5-trifluoro-phenyl)-butyryl]-3-trifluoromethyl-5,6,7,8-tetrahydro-imidazo[1,5-a]pyrazine-1-carboxylic acid methyl ester]	109 ± 5	116 ± 7	106 ± 3	4.5 ± 0.5	165 ± 13	Stability test result in words ([2]; conclusion over all storage conditions): most satisfying; Effect on increase of blood sugar after the glucose tolerance test in words ([3]; 30 mg/kg/day p.o., 7 days): significantly inhibited the increase of blood sugar; Effect on blood glucose and hemoglobin in words ([4]; Wistar fat rats, 10 mg/kg/day): reduce the concentration of blood glucose and hemoglobin obviously
–	–	–	–	–	–	–	95.2	95.7	95.2	93.3	92.2	COC(=O)c1nc(C(F)(F)F)n2c1CN(C(=O)C[C@H](N)Cc1cc(F)c(F)cc1F)CC2 [Compound A, (R)-7-[3-amino-4-(2,4,5-trifluoro-phenyl)-butyryl]-3-trifluoromethyl-5,6,7,8-tetrahydro-imidazo[1,5-a]pyrazine-1-carboxylic acid methyl ester]	–	–	–	–	–	AUC0-t [5]: 409 ng·h/mL; AUC(0-inf) [5]: 425 ng·h/mL; CL/F [5]: 545 mL/min/kg; Cmax [5]: 242 ng/mL; MRT [5]: 1.96 h; Tmax [5]: 0.5 h; half-life [5]: 1.54 h
274	275	397	133	1.61	0.88	0.87	96.7	96.5	97.6	95.6	95.4	COC(=O)c1nc(C(F)(F)F)n2c1CN(C(=O)CC(N)Cc1cc(F)c(F)cc1F)CC2.CS(=O)(=O)O (stereo not shown) [Mesylate of compound A]	108 ± 8	115 ± 9	92 ± 7	5.8 ± 0.4	287 ± 34	–
